From the kinase profiling compilation of Christmann-Franck et al. (2016)

Assays:
Experiment in all cases: radiometric filter-binding kinase assay, Kinase HotSpot
Conditions in all cases: compound 0.5 µM; ATP 10 µM
[1] = molecular target: HCK (human) (UniProt P08631)
[2] = molecular target: CDK9 CCNK (human) (UniProt O75909+P50750)
[3] = molecular target: INSR (human) (UniProt P06213)
[4] = molecular target: CDC42BPA (human) (UniProt Q5VT25)
[5] = molecular target: ULK1 (human) (UniProt O75385)
[6] = molecular target: PRKCG (human) (UniProt P05129)
[7] = molecular target: DYRK2 (human) (UniProt Q92630)
DYRK2 (human), sequence (Q92630 whole entry, looked up): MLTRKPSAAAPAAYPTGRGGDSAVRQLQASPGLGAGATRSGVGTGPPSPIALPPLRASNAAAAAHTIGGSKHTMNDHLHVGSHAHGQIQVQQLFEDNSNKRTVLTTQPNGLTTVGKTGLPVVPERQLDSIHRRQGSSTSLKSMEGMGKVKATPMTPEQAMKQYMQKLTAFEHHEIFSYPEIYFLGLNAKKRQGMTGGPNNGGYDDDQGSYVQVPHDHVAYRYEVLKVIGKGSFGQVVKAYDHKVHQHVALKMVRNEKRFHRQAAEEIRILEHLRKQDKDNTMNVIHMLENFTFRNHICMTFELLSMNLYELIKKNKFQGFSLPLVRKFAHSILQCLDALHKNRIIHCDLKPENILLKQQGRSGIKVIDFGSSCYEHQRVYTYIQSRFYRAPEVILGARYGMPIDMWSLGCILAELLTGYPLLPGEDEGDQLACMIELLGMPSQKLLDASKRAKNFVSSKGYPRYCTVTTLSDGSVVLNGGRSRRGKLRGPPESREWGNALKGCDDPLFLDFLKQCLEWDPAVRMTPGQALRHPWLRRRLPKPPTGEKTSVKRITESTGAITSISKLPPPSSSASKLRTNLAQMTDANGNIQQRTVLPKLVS

[8] = molecular target: FER (human) (UniProt P16591)
[9] = molecular target: BRSK2 (human) (UniProt Q8IWQ3)
[10] = molecular target: TYRO3 (human) (UniProt Q06418)
[11] = molecular target: MAPK13 (human) (UniProt O15264)
[12] = molecular target: MAP3K10 (human) (UniProt Q02779)
[13] = molecular target: DSTYK (human) (UniProt Q6XUX3)
[14] = molecular target: PRKCD (human) (UniProt Q05655)
[15] = molecular target: CSK (human) (UniProt P41240)
[16] = molecular target: EPHA6 (human) (UniProt Q9UF33)
[17] = molecular target: ABL2 (human) (UniProt P42684)
[18] = molecular target: NEK11 (human) (UniProt Q8NG66)
[19] = molecular target: IKBKB (human) (UniProt O14920)
[20] = molecular target: EPHB1 (human) (UniProt P54762)
[21] = molecular target: MYLK2 (human) (UniProt Q9H1R3)
[22] = molecular target: MAP2K2 (human) (UniProt P36507)
[23] = molecular target: MERTK (human) (UniProt Q12866)
[24] = molecular target: CSNK1D (human) (UniProt P48730)
[25] = molecular target: PRKCH (human) (UniProt P24723)
[26] = molecular target: PIM3 (human) (UniProt Q86V86)
[27] = molecular target: MARK4 (human) (UniProt Q96L34)
[28] = molecular target: RPS6KB2 (human) (UniProt Q9UBS0)
[29] = molecular target: NUAK2 (human) (UniProt Q9H093)
[30] = molecular target: MINK1 (human) (UniProt Q8N4C8)
[31] = molecular target: EPHA8 (human) (UniProt P29322)
EPHA8 (human), sequence (P29322 whole entry, looked up): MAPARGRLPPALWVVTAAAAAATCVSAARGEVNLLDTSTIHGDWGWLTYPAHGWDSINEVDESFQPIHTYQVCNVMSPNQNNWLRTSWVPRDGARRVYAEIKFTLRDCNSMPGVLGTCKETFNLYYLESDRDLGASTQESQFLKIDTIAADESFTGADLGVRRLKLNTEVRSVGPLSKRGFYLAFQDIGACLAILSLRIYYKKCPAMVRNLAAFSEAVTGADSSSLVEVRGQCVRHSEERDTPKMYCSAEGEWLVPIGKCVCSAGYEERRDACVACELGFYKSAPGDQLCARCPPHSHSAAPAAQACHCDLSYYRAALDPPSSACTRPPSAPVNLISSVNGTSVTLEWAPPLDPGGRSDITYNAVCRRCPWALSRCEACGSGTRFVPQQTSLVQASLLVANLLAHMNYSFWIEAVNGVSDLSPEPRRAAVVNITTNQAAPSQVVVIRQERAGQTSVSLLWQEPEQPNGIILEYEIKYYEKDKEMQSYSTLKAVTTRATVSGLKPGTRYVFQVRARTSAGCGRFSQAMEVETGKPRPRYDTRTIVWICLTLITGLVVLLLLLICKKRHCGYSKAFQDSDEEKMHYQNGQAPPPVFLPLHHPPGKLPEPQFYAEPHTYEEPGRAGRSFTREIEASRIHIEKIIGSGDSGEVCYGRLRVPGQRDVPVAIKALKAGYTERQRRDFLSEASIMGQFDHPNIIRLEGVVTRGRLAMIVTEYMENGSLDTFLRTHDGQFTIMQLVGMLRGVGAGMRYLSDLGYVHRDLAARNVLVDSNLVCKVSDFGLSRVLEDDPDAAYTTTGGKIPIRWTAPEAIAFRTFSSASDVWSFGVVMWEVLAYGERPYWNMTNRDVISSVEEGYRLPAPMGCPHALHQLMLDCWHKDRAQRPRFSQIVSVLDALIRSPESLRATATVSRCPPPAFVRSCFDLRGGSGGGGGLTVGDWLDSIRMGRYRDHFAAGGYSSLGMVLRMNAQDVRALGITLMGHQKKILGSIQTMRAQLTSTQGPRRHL

[32] = molecular target: MARK3 (human) (UniProt P27448)
[33] = molecular target: TGFBR1 (human) (UniProt P36897)
[34] = molecular target: STK11 (human) (UniProt Q15831)
[35] = molecular target: EPHB4 (human) (UniProt P54760)
[36] = molecular target: ACVR1 (human) (UniProt Q04771)
[37] = molecular target: TAOK2 (human) (UniProt Q9UL54)
[38] = molecular target: MATK (human) (UniProt P42679)
MATK (human), sequence (P42679 whole entry, looked up): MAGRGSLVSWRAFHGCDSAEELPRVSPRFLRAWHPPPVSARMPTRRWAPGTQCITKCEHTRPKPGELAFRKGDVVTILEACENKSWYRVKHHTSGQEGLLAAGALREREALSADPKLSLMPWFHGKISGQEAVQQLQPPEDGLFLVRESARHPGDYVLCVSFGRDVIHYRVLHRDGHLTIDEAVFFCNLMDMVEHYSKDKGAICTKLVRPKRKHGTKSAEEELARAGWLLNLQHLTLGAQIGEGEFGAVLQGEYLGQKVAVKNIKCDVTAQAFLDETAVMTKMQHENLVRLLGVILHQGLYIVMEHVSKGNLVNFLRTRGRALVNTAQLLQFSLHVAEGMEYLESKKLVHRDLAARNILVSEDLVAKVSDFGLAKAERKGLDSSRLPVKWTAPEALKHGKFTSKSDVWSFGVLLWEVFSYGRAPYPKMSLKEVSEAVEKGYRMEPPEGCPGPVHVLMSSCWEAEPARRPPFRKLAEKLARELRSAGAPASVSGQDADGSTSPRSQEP

[39] = molecular target: FGR (human) (UniProt P09769)
[40] = molecular target: HIPK2 (human) (UniProt Q9H2X6)
[41] = molecular target: PAK7 (human) (UniProt Q9P286)
[42] = molecular target: CDK5 CDK5R1 p35 (human) (UniProt Q00535+Q15078)

ULK1 (human), sequence (O75385 whole entry, looked up): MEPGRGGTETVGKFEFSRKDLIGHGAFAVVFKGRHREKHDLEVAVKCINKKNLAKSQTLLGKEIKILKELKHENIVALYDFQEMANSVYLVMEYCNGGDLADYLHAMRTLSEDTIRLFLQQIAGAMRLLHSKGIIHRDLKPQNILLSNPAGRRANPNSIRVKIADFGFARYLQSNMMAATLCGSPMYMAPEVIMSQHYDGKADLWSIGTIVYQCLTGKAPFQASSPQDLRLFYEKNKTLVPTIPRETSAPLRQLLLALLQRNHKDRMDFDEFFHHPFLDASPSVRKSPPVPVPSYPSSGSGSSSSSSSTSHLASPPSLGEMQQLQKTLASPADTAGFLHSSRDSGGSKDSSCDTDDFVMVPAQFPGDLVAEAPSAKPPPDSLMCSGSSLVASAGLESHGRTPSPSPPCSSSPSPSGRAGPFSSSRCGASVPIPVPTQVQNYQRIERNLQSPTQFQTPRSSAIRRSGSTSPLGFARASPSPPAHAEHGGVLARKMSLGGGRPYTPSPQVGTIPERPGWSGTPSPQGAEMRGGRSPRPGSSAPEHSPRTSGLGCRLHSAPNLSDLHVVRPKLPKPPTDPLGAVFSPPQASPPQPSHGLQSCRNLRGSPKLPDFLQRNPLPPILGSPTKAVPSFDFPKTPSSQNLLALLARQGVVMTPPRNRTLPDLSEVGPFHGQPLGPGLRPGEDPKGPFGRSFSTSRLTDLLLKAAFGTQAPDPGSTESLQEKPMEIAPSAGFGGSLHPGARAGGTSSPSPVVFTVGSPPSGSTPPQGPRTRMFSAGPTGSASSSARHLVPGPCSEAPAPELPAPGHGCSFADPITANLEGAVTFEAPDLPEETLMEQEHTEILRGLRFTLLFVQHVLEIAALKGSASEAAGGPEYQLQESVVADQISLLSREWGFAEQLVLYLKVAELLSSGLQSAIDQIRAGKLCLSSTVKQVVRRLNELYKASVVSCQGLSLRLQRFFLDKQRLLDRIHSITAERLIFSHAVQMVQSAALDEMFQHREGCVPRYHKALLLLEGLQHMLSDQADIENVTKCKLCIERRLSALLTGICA
CDC42BPA (human), sequence (Q5VT25 whole entry, looked up): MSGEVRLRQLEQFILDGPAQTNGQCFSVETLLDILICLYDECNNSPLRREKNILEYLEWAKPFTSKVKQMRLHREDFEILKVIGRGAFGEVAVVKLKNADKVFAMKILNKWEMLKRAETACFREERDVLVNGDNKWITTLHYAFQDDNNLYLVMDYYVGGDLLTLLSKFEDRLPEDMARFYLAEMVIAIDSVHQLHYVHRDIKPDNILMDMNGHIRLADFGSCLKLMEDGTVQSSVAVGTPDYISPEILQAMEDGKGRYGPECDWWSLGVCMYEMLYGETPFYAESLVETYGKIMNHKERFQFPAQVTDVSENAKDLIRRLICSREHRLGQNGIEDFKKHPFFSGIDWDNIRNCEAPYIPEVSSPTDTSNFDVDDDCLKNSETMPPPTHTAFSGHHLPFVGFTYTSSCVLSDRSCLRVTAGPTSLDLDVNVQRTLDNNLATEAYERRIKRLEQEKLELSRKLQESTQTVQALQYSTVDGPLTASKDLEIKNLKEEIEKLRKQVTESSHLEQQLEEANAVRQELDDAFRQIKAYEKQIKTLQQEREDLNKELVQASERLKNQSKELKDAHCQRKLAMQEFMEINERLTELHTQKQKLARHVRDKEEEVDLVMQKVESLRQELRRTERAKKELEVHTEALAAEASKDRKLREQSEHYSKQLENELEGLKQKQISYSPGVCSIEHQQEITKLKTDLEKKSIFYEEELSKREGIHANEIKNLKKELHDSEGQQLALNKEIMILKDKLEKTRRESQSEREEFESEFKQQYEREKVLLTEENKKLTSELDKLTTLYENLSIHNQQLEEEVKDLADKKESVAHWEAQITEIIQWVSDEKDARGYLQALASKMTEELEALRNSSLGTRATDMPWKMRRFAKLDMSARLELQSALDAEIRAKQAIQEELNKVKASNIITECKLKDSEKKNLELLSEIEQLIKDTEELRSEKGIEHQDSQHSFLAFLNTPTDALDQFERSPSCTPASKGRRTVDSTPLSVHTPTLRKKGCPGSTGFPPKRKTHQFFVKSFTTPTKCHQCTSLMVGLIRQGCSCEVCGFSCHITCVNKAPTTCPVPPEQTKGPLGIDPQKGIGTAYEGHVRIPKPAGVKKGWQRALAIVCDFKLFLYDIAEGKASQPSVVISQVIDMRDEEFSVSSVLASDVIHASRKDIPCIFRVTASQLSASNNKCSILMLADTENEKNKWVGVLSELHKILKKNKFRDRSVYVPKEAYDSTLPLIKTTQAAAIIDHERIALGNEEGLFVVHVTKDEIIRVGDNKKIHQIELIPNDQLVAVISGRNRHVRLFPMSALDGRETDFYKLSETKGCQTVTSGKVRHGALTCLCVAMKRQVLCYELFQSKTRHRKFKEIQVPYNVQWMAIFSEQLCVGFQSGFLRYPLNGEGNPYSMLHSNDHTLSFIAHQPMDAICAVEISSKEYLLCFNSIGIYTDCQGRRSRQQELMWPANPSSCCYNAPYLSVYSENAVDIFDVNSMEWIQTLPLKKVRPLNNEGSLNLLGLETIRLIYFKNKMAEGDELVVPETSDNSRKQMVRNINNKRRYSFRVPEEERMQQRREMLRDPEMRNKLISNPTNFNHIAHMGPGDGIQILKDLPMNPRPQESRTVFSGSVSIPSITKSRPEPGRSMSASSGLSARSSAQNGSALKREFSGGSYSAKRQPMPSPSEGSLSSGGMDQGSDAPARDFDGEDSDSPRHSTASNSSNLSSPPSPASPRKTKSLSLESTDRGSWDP

Work on Nc1ncnc2c1c(-c1ccc(Oc3ccccc3)cc1)cn2C1CCCC1 yielded a residual activity [1] of 2.18%, a residual activity [2] of 104% and a residual activity [3] of 103%. For the same compound, the residual activity [4] was 105%, the residual activity [5] was 106% and the residual activity [6] was 96.1%. The residual activity [7] was 96.5%, the residual activity [8] was 88.1% and the residual activity [9] was 98.3%. It also gave a residual activity [10] of 102%, a residual activity [11] of 95.3% and a residual activity [12] of 82.6%. The residual activity [13] was 100%, the residual activity [14] was 99.6% and the residual activity [15] was 3.4%. For the same compound, the residual activity [16] was 63.6%, the residual activity [17] was 84.8% and the residual activity [18] was 87.1%. The residual activity [19] was 101%, the residual activity [20] was 94.5% and the residual activity [21] was 92.4%. It also gave a residual activity [22] of 103%, a residual activity [23] of 87.4% and a residual activity [24] of 85.1%. It also gave a residual activity [25] of 92.6%, a residual activity [26] of 98.7% and a residual activity [27] of 85.2%. For the same compound, the residual activity [28] was 107%, the residual activity [29] was 96.8% and the residual activity [30] was 105%. The residual activity [31] was 95.2%, the residual activity [32] was 89.8% and the residual activity [33] was 96.1%. The residual activity [34] was 101%, the residual activity [35] was 98.3% and the residual activity [36] was 95.4%. For the same compound, the residual activity [37] was 104%, the residual activity [38] was 90% and the residual activity [39] was 2.93%. For the same compound, the residual activity [40] was 106% and the residual activity [41] was 102%.

Work on Nc1ncnc2[nH]nc(Nc3ccc(F)cc3)c12 yielded a residual activity [1] of 90.7%, a residual activity [2] of 92.4% and a residual activity [3] of 98.5%. It also gave a residual activity [4] of 103%, a residual activity [5] of 95.6% and a residual activity [6] of 96%. The residual activity [7] was 90.6%, the residual activity [8] was 100% and the residual activity [9] was 60.6%. It also gave a residual activity [10] of 100%, a residual activity [11] of 104% and a residual activity [12] of 85.9%. The residual activity [42] was 98.6%, the residual activity [13] was 109% and the residual activity [14] was 112%. For the same compound, the residual activity [15] was 80.2%, the residual activity [16] was 49.3% and the residual activity [17] was 82.3%. For the same compound, the residual activity [18] was 102%, the residual activity [19] was 105% and the residual activity [21] was 87.3%. The residual activity [22] was 90%, the residual activity [23] was 90.7% and the residual activity [24] was 67.7%. The residual activity [25] was 84.7%, the residual activity [26] was 95% and the residual activity [27] was 99.4%. For the same compound, the residual activity [28] was 96.8%, the residual activity [29] was 90.4% and the residual activity [30] was 88.9%. The residual activity [31] was 94%, the residual activity [32] was 92.5% and the residual activity [34] was 97.1%. The residual activity [35] was 87.8%, the residual activity [36] was 127% and the residual activity [37] was 97.3%. For the same compound, the residual activity [38] was 95.6%, the residual activity [39] was 89.5% and the residual activity [40] was 106%. The residual activity [41] was 116%.

For CCN(CC)CCNC(=O)c1c(C)[nH]c(/C=C2\C(=O)Nc3ccc(F)cc32)c1C, the residual activity [1] was 40%, the residual activity [2] was 80.2% and the residual activity [4] was 89.5%. It also gave a residual activity [5] of 16.3%, a residual activity [6] of 83.8% and a residual activity [7] of 82.6%. For the same compound, the residual activity [8] was 31.6%, the residual activity [9] was 54.5% and the residual activity [10] was 28.3%. It also gave a residual activity [11] of 92.4%, a residual activity [12] of 104% and a residual activity [13] of 111%. It also gave a residual activity [14] of 95.1%, a residual activity [15] of 90.2% and a residual activity [16] of 29.5%. The residual activity [17] was 61.8%, the residual activity [18] was 106% and the residual activity [19] was 81%. It also gave a residual activity [20] of 53.6%, a residual activity [21] of 7.74% and a residual activity [22] of 25.4%. For the same compound, the residual activity [23] was 39.8%, the residual activity [24] was 31.8% and the residual activity [25] was 112%. For the same compound, the residual activity [26] was 56.8%, the residual activity [27] was 24.7% and the residual activity [28] was 113%. The residual activity [29] was 65%, the residual activity [30] was 10.5% and the residual activity [31] was 92.1%. The residual activity [32] was 30.4%, the residual activity [33] was 101% and the residual activity [34] was 97.2%. For the same compound, the residual activity [36] was 121%, the residual activity [37] was 90.3% and the residual activity [38] was 88.8%. For the same compound, the residual activity [39] was 16.4%, the residual activity [40] was 41.3% and the residual activity [41] was 81.6%.
